Measurements taken from patent US12690589B2, “Herbicidal compositions comprising pyroxasulfone” (BASF SE, priority 2024, dated 2026).

Columns and labels:
Assay in all cases: Post-emergence application in field trials, herbicidal activity (damage scale 0 to 100%)
Type in all cases: in vivo
Hordeum vulgare (HORVW) = system: Hordeum vulgare (HORVW)
How it was run: (§1)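 Field sites with natural or seeded weeds were sprayed post-emergence via flat fan nozzles in 200 l/ha water plus 0.25 v/v % MSO adjuvant, solo or mixed with pyroxasulfone and other partners. Damage was scored 0–100% versus untreated plants at indicated DAT. Colby expected values were used to judge synergy.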

[1] = system: Lolium multiflorum (LOLMU)
How it was run: as §1

[2] = system: Amaranthus viridis (AMAVI); details: growth stage 16-18, height 10-15 cm, B 120 g ai/ha, 20 DAT, Table 2.1
Bidens pilosa (BIDPI) = details: B 120 g ai/ha
[3] = system: Digitaria horizontalis (DIGHO); details: growth stage 25, height 5-10 cm, B 120 g ai/ha, 21 DAT, Table 2.6
Eleusine indica (ELEIN) = details: B 120 g ai/ha
[4] = system: Euphorbia heterophylla (EPHHL); details: B 120 g ai/ha, 21 DAT
[5] = system: Galinsoga parviflora (GASPA); details: height 15-35 cm, B 120 g ai/ha, 21 DAT, Table 2.4
Ipomoea triloba (IPOTR) = details: height 20-25 cm, B 120 g ai/ha, 21 DAT, Table 2.2
Panicum maximum (PANMA) = details: height 20-25 cm, B 120 g ai/ha, 21 DAT, Table 2.3
[6] = system: Portulaca oleracea (POROL); details: growth stage 14-16, height 5-10 cm, B 120 g ai/ha, 20 DAT, Table 2.1
[7] = system: Spermacoce latifolia (BOILF); details: B 120 g ai/ha, 21 DAT, Table 2.5
[8] = 7 DAT, stage 23-29, height 20-25 cm, g ai/ha A-1 12.5, B 70, C-12 252
[9] = 7 DAT, stage 23-29, height 20-25 cm, g ai/ha A-1 18, B 70, C-12 252
[10] = 7 DAT, stage 23-29, height 20-25 cm, g ai/ha A-1 18, B 90, C-12 252
[11] = 21 DAT, stage 23-29, height 20-25 cm, g ai/ha A-1 12.5, B 70, C-12 252
[12] = 21 DAT, stage 23-29, height 20-25 cm, g ai/ha A-1 18, B 70, C-12 252
[13] = 21 DAT, stage 23-29, height 20-25 cm, g ai/ha A-1 18, B 90, C-12 252
[14] = 28 DAT, stage 23-29, height 20-25 cm, g ai/ha A-1 12.5, B 70, C-12 252
[15] = 28 DAT, stage 23-29, height 20-25 cm, g ai/ha A-1 18, B 70, C-12 252
[16] = 28 DAT, stage 23-29, height 20-25 cm, g ai/ha A-1 18, B 90, C-12 252
[17] = 7 DAT, stage 22-25, height 20-25 cm, g ai/ha A-1 12.5, B 70, C-12 252
[18] = 7 DAT, stage 22-25, height 20-25 cm, g ai/ha A-1 18, B 70, C-12 252
[19] = 7 DAT, stage 22-25, height 20-25 cm, g ai/ha A-1 18, B 90, C-12 252
[20] = 21 DAT, stage 22-25, height 20-25 cm, g ai/ha A-1 12.5, B 70, C-12 252
[21] = 21 DAT, stage 22-25, height 20-25 cm, g ai/ha A-1 18, B 70, C-12 252
[22] = 21 DAT, stage 22-25, height 20-25 cm, g ai/ha A-1 18, B 90, C-12 252
[23] = 28 DAT, stage 22-25, height 20-25 cm, g ai/ha A-1 12.5, B 70, C-12 252
[24] = 28 DAT, stage 22-25, height 20-25 cm, g ai/ha A-1 18, B 70, C-12 252
[25] = 28 DAT, stage 22-25, height 20-25 cm, g ai/ha A-1 18, B 90, C-12 252

SMILES: Cn1nc(C(F)(F)F)c(CS(=O)(=O)C2=NOC(C)(C)C2)c1OC(F)F [B, pyroxasulfone]
- % Herbicidal activity (Hordeum vulgare (HORVW); [8]): 0%
- % Herbicidal activity (Hordeum vulgare (HORVW); [9]): 0%
- % Herbicidal activity (Hordeum vulgare (HORVW); [10]): 0%
- % Herbicidal activity (Hordeum vulgare (HORVW); [11]): 0%
- % Herbicidal activity (Hordeum vulgare (HORVW); [12]): 0%
- % Herbicidal activity (Hordeum vulgare (HORVW); [13]): 0%
- % Herbicidal activity (Hordeum vulgare (HORVW); [14]): 0%
- % Herbicidal activity (Hordeum vulgare (HORVW); [15]): 0%
- % Herbicidal activity (Hordeum vulgare (HORVW); [16]): 0%
- % Herbicidal activity (Hordeum vulgare (HORVW); HORVW, growth stage 23-29, height 20-25 cm, B 70 g ai/ha, 7 DAT, Table 4.2): 0%
- % Herbicidal activity (Hordeum vulgare (HORVW); HORVW, growth stage 23-29, height 20-25 cm, B 70 g ai/ha, 21 DAT, Table 4.4): 0%
- % Herbicidal activity (Hordeum vulgare (HORVW); HORVW, growth stage 23-29, height 20-25 cm, B 70 g ai/ha, 28 DAT, Table 4.5): 0%
- % Herbicidal activity (Hordeum vulgare (HORVW); HORVW, growth stage 23-29, height 20-25 cm, B 90 g ai/ha, 7 DAT, Table 4.2): 0%
- % Herbicidal activity (Hordeum vulgare (HORVW); HORVW, growth stage 23-29, height 20-25 cm, B 90 g ai/ha, 21 DAT, Table 4.4): 0%
- % Herbicidal activity (Hordeum vulgare (HORVW); HORVW, growth stage 23-29, height 20-25 cm, B 90 g ai/ha, 28 DAT, Table 4.5): 0%
- % Herbicidal activity [1, 17]: 10%
- % Herbicidal activity [1, 18]: 10%
- % Herbicidal activity [1, 19]: 10%
- % Herbicidal activity [1, 20]: 10%
- % Herbicidal activity [1, 21]: 10%
- % Herbicidal activity [1, 22]: 10%
- % Herbicidal activity [1, 23]: 10%
- % Herbicidal activity [1, 24]: 10%
- % Herbicidal activity [1, 25]: 10%
- % Herbicidal activity ([1]; LOLMU, growth stage 22-25, height 20-25 cm, B 70 g ai/ha, 21 DAT, Table 4.4): 20%
- % Herbicidal activity ([1]; LOLMU, growth stage 22-25, height 20-25 cm, B 90 g ai/ha, 7 DAT, Table 4.2): 10%
- % Herbicidal activity ([1]; LOLMU, growth stage 22-25, height 20-25 cm, B 90 g ai/ha, 21 DAT, Table 4.4): 10%
- % Herbicidal activity [2]: 0%
- % Herbicidal activity (Bidens pilosa (BIDPI); growth stage 12-16, height 5-10 cm, 21 DAT, Table 2.6): 5%
- % Herbicidal activity (Bidens pilosa (BIDPI); growth stage 23-25, height 10-20 cm, 20 DAT, Table 2.1): 0%
- % Herbicidal activity (Bidens pilosa (BIDPI); height 20-45 cm, 21 DAT, Table 2.4): 0%
- % Herbicidal activity [3]: 5%
- % Herbicidal activity (Eleusine indica (ELEIN); growth stage 21-25, height 5-10 cm, 20 DAT, Table 2.1): 0%
- % Herbicidal activity (Eleusine indica (ELEIN); growth stage 23-25, height 3-5 cm, 21 DAT, Table 2.6): 5%
- % Herbicidal activity (Eleusine indica (ELEIN); height 20-25 cm, 21 DAT, Table 2.3): 0%
- % Herbicidal activity ([4]; growth stage 12-16, height 5-15 cm, Table 2.6): 5%
- % Herbicidal activity ([4]; height 15-35 cm, Table 2.4): 0%
- % Herbicidal activity ([4]; height 20-25 cm, Table 2.2): 0%
- % Herbicidal activity [5]: 0%
- % Herbicidal activity (Ipomoea triloba (IPOTR)): 0%
- % Herbicidal activity (Panicum maximum (PANMA)): 0%
- % Herbicidal activity [6]: 0%
- % Herbicidal activity [7]: 5%

SMILES: CP(=O)(O)CC[C@H](N)C(=O)O.N [C-12, glufosinate-P-ammonium]
- % Herbicidal activity (Hordeum vulgare (HORVW); [8]): 40%
- % Herbicidal activity (Hordeum vulgare (HORVW); [9]): 40%
- % Herbicidal activity (Hordeum vulgare (HORVW); [10]): 40%
- % Herbicidal activity (Hordeum vulgare (HORVW); [11]): 30%
- % Herbicidal activity (Hordeum vulgare (HORVW); [12]): 30%
- % Herbicidal activity (Hordeum vulgare (HORVW); [13]): 30%
- % Herbicidal activity (Hordeum vulgare (HORVW); [14]): 30%
- % Herbicidal activity (Hordeum vulgare (HORVW); [15]): 30%
- % Herbicidal activity (Hordeum vulgare (HORVW); [16]): 30%
- % Herbicidal activity [1, 17]: 50%
- % Herbicidal activity [1, 18]: 50%
- % Herbicidal activity [1, 19]: 50%
- % Herbicidal activity [1, 20]: 30%
- % Herbicidal activity [1, 21]: 30%
- % Herbicidal activity [1, 22]: 30%
- % Herbicidal activity [1, 23]: 30%
- % Herbicidal activity [1, 24]: 30%
- % Herbicidal activity [1, 25]: 30%
